Structures are written as SMILES.

Assay [1] concerns kultivierten, cytokin-stimulierten Mausfibroblasten. Description: Nitrite in supernatant of cultured cytokine-stimulated mouse fibroblasts (Griess reaction). It counts as cell-based, Maus. To be noted: for inhibition at 2.5 µM / inhibition at 10 µM / inhibition at 25 µM / inhibition at 100 µM / inhibition at 250 µM: Fibroblast, read-out: Hemmung; for inhibition at 2.5 µM / inhibition at 10 µM / inhibition at 25 µM / inhibition at 100 µM / inhibition at 250 µM / Nitrit im Überstand: 96 h, Interferon-gamma, TNF-alpha, LPS stimulated. As to the method:
Zum Nachweis der Wirksamkeit einer Verbindung der vorliegenden Erfindung an kultivierten Zellen wurden Mausfibroblasten nach Werner-Felmayer et al., (Ref. 9) gewonnen und in RPMI 1640 Medium (Schoeller Pharma, Wien, Österreich) mit 20% Hitze-inaktiviertem fötalem Kälberserum (Schoeller Pharma) in einer Dichte von 10^5 Zellen pro ml ausgesät und mit 50 U/ml Mäuse-Interferongamma, 100 U/ml Tumornekrose Faktor-Alpha und 1 µg/ml Lipopolysaccharid (E. coli B55:05) in Gegenwart verschiedener Konzentrationen von Hemmstoffen kultiviert. Nach 96 h im Brutschrank (100% Luftfeuchtigkeit, 37°C, 5% CO2) werden die Überstände gesammelt und mit der Griess-Reaktion auf ihren Gehalt an Nitrit, einem Abbauprodukt von NO, analysiert. Die folgende Tabelle 2 zeigt einen Vergleich von H2aminobiopterin (R1 = R3 = H, R2 = R4 = OH, R5 = CH3), H4aminobiopterin und Beispiel 72 aus DE 4418097: Tabelle 2
On the technique in general: Griess reagent forms a coloured azo dye with nitrite.

The target of assay [2] is T1, rekombinante, neuronale, Tetrahydrobiopterin-freie NO-Synthase (Rattus norvegicus, UniProt P29476).
T1 construct: made in house
Nature of the assay: Inhibition of recombinant neuronal tetrahydrobiopterin-free NO synthase ([3H]citrulline formation from [3H]arginine). It counts as biochemical. To be noted: for NO-Synthase -Aktivität / inhibition at 0.01 µM / inhibition at 0.1 µM / inhibition at 1 µM / inhibition at 10 µM / inhibition at 100 µM / inhibition at 1000 µM: 10 µM Tetrahydrobiopterin, 10 min, 37°C; for inhibition at 0.01 µM / inhibition at 0.1 µM / inhibition at 1 µM / inhibition at 10 µM / inhibition at 100 µM / inhibition at 1000 µM: read-out: Hemmung. As for the experimental part:
Zum Nachweis der Wirkung der Hemmstoffe eignet sich z.B. rekombinante, neuronale, Tetrahydrobiopterin-freie NO-Synthase, welche nach der Methode von List et al. 1996 (Ref. 7) hergestellt wird. Die NO-Synthaseaktivität wird dabei in Abhängigkeit von der Zugabe des NO-Synthase-Hemmstoffes durch die Bildung von [2,3,4,5-^3H]Citrullin aus [2,3,4,5-^3H]Arginin nach der Methode von Mayer et al. (Ref. 8) bestimmt. Dazu wird in 0.1 ml folgendes Gemisch für 10 min bei 37°C inkubiert: 0.1 µg NO-Synthase, 0.1mM [2,3,4,5-^3H]-L-Arginin (ca. 60000 cpm), 0.5 mM CaCl2, 10 µg/ml Calmodulin, 0.2 mM NADPH (Nicotinamidadenindinukleotid, reduzierte Form), 10 µM Tetrahydrobiopterin, 0-1000 µM NO-Synthase-Inhibitor (z.B. H2aminobiopterin), 5 µM FAD (Flavinadenindinucleutid), 5 µM FMN (Flavinmononucleotid), und 0.2 mM CHAPS (3-[(3-cholamidopropyl)dimethyl-amonio]-1-propansulfonat). Die Reaktion wird durch Zugabe von 0.9 ml 20 mM Natriumacetatpuffer, pH = 5,5, der 1 mM L-Citrullin enthält, gestoppt. Das Gemisch wird anschließend auf Ionenaustauschersäulen, die mit dem Material DOWEX AG50W-X8 gefüllt sind, aufgetragen, und das Eluat sowie die Waschflüssigkeit (1 ml Wasser) werden aufgefangen. 7 ml Scintillationscocktail werden zugegeben und die Radioaktivität, die ein Maß für die NO-Synthaseaktivität ist, wird mit einem Szintillationszähler bestimmt. Tabelle I

Regarding `C[C@H](O)[C@H](O)C1=Nc2c(N)nc(N)nc2NC1` [H2aminobiopterin, 2,4-diamino-7,8-dihydro-6(L-erythro-1,2-dihydroxylpropyl) pteridin], the inhibition at 2.5 µM in assay [1] (inhibitor 2.5 µM) was 35%. Also, the inhibition at 10 µM was determined as 78% in assay [1] (inhibitor 10 µM) and 64% in assay [2] (inhibitor 10. µM). Also, the inhibition at 25 µM in assay [1] (inhibitor 25 µM) was 99%. The figures for the inhibition at 100 µM in assay [1] (inhibitor 100 µM) and in assay [2] (inhibitor 100. µM) were 100% and 83%, respectively. In addition, the inhibition at 250 µM in assay [1] (inhibitor 250 µM) came out at 100%. The “Wirksamkeit an kultivierten Zellen (Vergleich)” value in assay [1] (in words, compared with previously known pteridine derivatives) is “deutlich wirksamer”. For the same compound, the “Nitrit im Überstand” value in assay [1] (inhibitor 2.5 µM) stood at 6.2 µM; in assay [1] (inhibitor 10 µM), 2.1 µM; in assay [1] (inhibitor 25 µM), 0.1 µM; in assay [1] (inhibitor 100 µM), 0.0 µM; in assay [1] (inhibitor 250 µM), 0.0 µM. In assay [2] (in words, compared with 6R-H4aminobiopterin), the “Hemmung des Enzyms (Vergleich)” value is “in der gleichen Größenordnung”. In assay [2] (in words, compared with Beispiel 72 of DE 4418097), the “Wirksamkeit am Enzym (Vergleich)” value is given as “wesentlich wirksamer”. Moreover, the “NO-Synthase -Aktivität” value in assay [2] (inhibitor 0.01 µM) is 294 nmol/mg/min; in assay [2] (inhibitor 0.1 µM) it was 283 nmol/mg/min; in assay [2] (inhibitor 1.0 µM), 242 nmol/mg/min; in assay [2] (inhibitor 10. µM) it was 110 nmol/mg/min; in assay [2] (inhibitor 100. µM), 48 nmol/mg/min; in assay [2] (inhibitor 1000. µM), 25 nmol/mg/min. Also, the inhibition at 0.01 µM in assay [2] (inhibitor 0.01 µM) came out at 0.3%. In assay [2] (inhibitor 0.1 µM), the inhibition at 0.1 µM was determined as 4%. Also, the inhibition at 1 µM in assay [2] (inhibitor 1.0 µM) was 18%. Besides, in assay [2] (inhibitor 1000. µM), the inhibition at 1000 µM was 92%.
Consider `C[C@H](O)[C@H](O)[C@H]1CNc2nc(N)nc(N)c2N1` [H4aminobiopterin, 2,4-Diamino-5,6,7,8-tetrahydro-6R-(L-erythro-1,2 dihydroxypropyl)pteridin, reference compound], for which the inhibition at 2.5 µM in assay [1] (inhibitor 2.5 µM) was 7%. In addition, the inhibition at 10 µM in assay [1] (inhibitor 10 µM) was 36%; in assay [2] (inhibitor 10. µM) it was 76%. In assay [1] (inhibitor 25 µM), the inhibition at 25 µM stood at 62%. Further, the results for the inhibition at 100 µM in assay [1] (inhibitor 100 µM) and in assay [2] (inhibitor 100. µM) were 96% and 88%, respectively. In addition, in assay [1] (inhibitor 250 µM), the inhibition at 250 µM came to 99%. For the same compound, the “Nitrit im Überstand” value in assay [1] (inhibitor 2.5 µM) is listed as 9.3 µM; in assay [1] (inhibitor 10 µM), 6.4 µM; in assay [1] (inhibitor 25 µM), 3.8 µM; in assay [1] (inhibitor 100 µM), 0.4 µM; in assay [1] (inhibitor 250 µM), 0.02 µM. Moreover, the “NO-Synthase -Aktivität” value in assay [2] (inhibitor 0.01 µM) is 279 nmol/mg/min; in assay [2] (inhibitor 0.1 µM), 262 nmol/mg/min; in assay [2] (inhibitor 1.0 µM), 181 nmol/mg/min; in assay [2] (inhibitor 10. µM) it was 72 nmol/mg/min; in assay [2] (inhibitor 100. µM), 35 nmol/mg/min; in assay [2] (inhibitor 1000. µM) it was 24 nmol/mg/min. Also, the inhibition at 0.01 µM in assay [2] (inhibitor 0.01 µM) was 6%. Moreover, in assay [2] (inhibitor 0.1 µM), the inhibition at 0.1 µM is 12%. Further, the inhibition at 1 µM in assay [2] (inhibitor 1.0 µM) was 39%. In addition, in assay [2] (inhibitor 1000. µM), the inhibition at 1000 µM worked out at 92%.

These data come from patent EP0906913A1, “Pteridinderivatives as NO synthase inhibitors” (Werner, Ernst, priority 1997, dated 1999).
